Reference: patent US9975852B2, “Quinoline sulfonyl derivatives and uses thereof” (Health Sciences North Research Institute, priority 2013, dated 2018)
Read-outs that look alike come from different tables or passages of the source.

How the values were obtained:
MDA-MB468 = assay: SRB antiproliferative assay, MDA-MB468; format: cell-based, human
Description: (§1) Antiproliferative effects were determined by a sulforhodamine B (SRB) based protocol. For a typical screening experiment, 5,000-10,000 cells were inoculated into 100 μl medium per well of a 96-well microtiter plate as described previously. […] Some of the sample wells were fixed with 25 μl of 50% trichloroacetic acid (TCA) as a control of the cell population for each cell line at the time of drug addition (Tz). An aliquot of the frozen stock was thawed and diluted to the desired final maximum test-concentration with complete medium. Two to ten-fold serial dilutions were made to provide a total of seven drug concentrations (and a control [C]). Following addition of drugs, the culture plate was incubated for additional 48 h. Cells were fixed in situ by slowly adding 25 μl of ice-cold 50% (w/v) TCA (final concentration, 10% TCA), and were then incubated for 60 min at 4° C. The supernatant was discarded, and the plate was washed five times with tap water, followed by air-dry. 50 μl of SRB solution at 0.4% (w/v) in 1% acetic acid was added to each well, and the plate was incubated for >30 min at room temperature. Unbound SRB was removed by five washes with tap water, followed by air-drying. […] The relative growth rate (%) was calculated for each of the compound concentrations according to the following formula: (Ti−Tz)/(C−Tz)×100 In the formula, time zero (Tz), control growth (C), and OD for different concentration of tested compounds (Ti). The GI50 for each compound was obtained from a non-linear Sigmoidal dose-response (variable slope) curve which is fitted by GraphPad Prism™ v.4.03 software. Values were calculated for each of these parameters if the level of activity was reached. However, if the effect was not reached or was exceeded, the value for that parameter was expressed as greater or less than the maximum or minimum concentration tested. Flow Cytometry

184B5 = assay: SRB antiproliferative assay, 184B5 non-cancer breast cells; format: cell-based, human; details: read-out: GI50 184B5
Description: as §1

MDA-MB231 = assay: SRB antiproliferative assay, MDA-MB231; format: cell-based, human
Description: as §1

MCF10A = assay: SRB antiproliferative assay, MCF10A non-cancer breast cells; format: cell-based, human; details: 48 h
Description: as §1

MCF7 = assay: SRB antiproliferative assay, MCF7; format: cell-based, human; details: SRB, 48 h, read-out: GI50 MCF7
Description: as §1

Jurkat lymphoma cells = assay: Flow cytometry, apoptosis of Jurkat lymphoma cells; format: cell-based; details: 6 nM Bortezomib, 48 hours
Description: Asynchronously growing Jurkat lymphoma cells were incubated for 48 hours in the absence (sham control) or presence of Bortezomib alone or in combination with VR-23.

MCF7 cells = assay: Clonogenic assay using MCF7 cells; format: cell-based, human
Description: (§2) The clonogenic assay was carried out as described in Santi and Lee (2011).^11
Antiproliferative activity of VR-23 was evaluated on a variety of different cell lines, alone or in combination with Bortezomib, by way of SRBSRB or clonogenic assays.

U87MG brain cancer cells = assay: Clonogenic assay, U87MG brain cancer cells; format: cell-based; details: Temozolomide
Description: as §2

SMILES	GI50 (MDA-MB468; Homo sapiens, MDA-MB-468, 48 h)	GI50 (184B5; Homo sapiens, 184B5, SRB, 48 h)	GI50 (MDA-MB231; Homo sapiens, MDA-MB-231, 48 h)	GI50 (MCF7; Homo sapiens, MCF7)	melting point	also measured
CN(C)c1cccc2c(S(=O)(=O)NCCCNc3ccnc4cc(Cl)ccc34)cccc12 [VR-65 (41), 5-Dimethylamino-naphthalene-1-sulfonic acid [3-(7-chloro-quinolin-4-ylamino)-propyl]-amide]	4.63 ± 0.35 µM	1.67 ± 0.08 µM	12.7 ± 1.01 µM			GI50 (MCF10A; Homo sapiens, MCF-10A): 2.56 ± 0.03 µM
O=[N+]([O-])c1cccc(S(=O)(=O)N2CCN(c3ccnc4cc(Cl)ccc34)CC2)c1 [VR-25 (40), 7-Chloro-4-(4-(3-nitrophenylsulfonyl)piperazin-1-yl)quinoline]	9.21 ± 0.65 µM	15.8 ± 0.88 µM	20.4 ± 1.15 µM	8.62 ± 0.38 µM		GI50 (MCF10A; Homo sapiens, MCF-10A): 31.1 ± 1.01 µM
CC(C)C[C@H](NC(=O)[C@H](Cc1ccccc1)NC(=O)c1cnccn1)B(O)O [Bortezomib]						Cell killing by apoptosis (Jurkat lymphoma cells): neither 6 nM of Bortezomib (FIG. 4, ii) nor 0.75 μM of VR-23 (FIG. 4, iv) induced substantial cell killing by apoptosis; Average colony number (MCF7 cells; Bortezomib at 2 nM, series with non-treated control 34): 15; Average colony number (MCF7 cells; Bortezomib at 4 nM, series with non-treated control 34): 12; Average colony number (MCF7 cells; Bortezomib at 4 nM, series with non-treated control 36): 11; Average colony number (MCF7 cells; Bortezomib at 6 nM, series with non-treated control 36): 6
Cc1ccc(S(=O)(=O)N2CCN(c3ccnc4cc(Cl)ccc34)CC2)cc1 [VR-22 (38), 7-Chloro-4-(4-tosylpiperazin-1-yl)quinoline]	5.77 ± 0.41 µM	9.56 ± 0.53 µM	6.16 ± 0.51 µM	5.25 ± 0.45 µM		GI50 (MCF10A; Homo sapiens, MCF-10A): 12.6 ± 0.66 µM
N.N.[Cl][Pt][Cl] [Cisplatin, reference compound]						GI50 (MDA-MB468; 48 h): 31 ± 0.45 µM; GI50 (184B5; SRB, 48 h): 25.5 ± 0.35 µM; GI50 (MCF7): 25.8 ± 0.38 µM; GI50 (MDA-MB231; 48 h): 23.65 ± 0.23 µM; GI50 (MCF10A): 51.5 ± 0.65 µM
O=S(=O)(c1ccc(Cl)cc1Cl)N1CCN(c2ccnc3cc(Cl)ccc23)CC1 [Compound 5, 7-Chloro-4-(4-(2,4-dichlorophenylsulfonyl)piperazin-1-yl)quinoline]	21.6 ± 0.61 µM	12.4 ± 0.15 µM	40.6 ± 0.81 µM	13.5 ± 0.23 µM	145 to 147 °C	
O=S(=O)(NCCCNc1ccnc2cc(C(F)(F)F)ccc12)c1ccc(Cl)cc1 [Compound 27, 4-Chloro-N-[3-(7-trifluoromethyl-quinolin-4-ylamino)-propyl]-benzenesulfonamide]	10.3 ± 0.56 µM	7.63 ± 0.43 µM	12.8 ± 0.88 µM	5.44 ± 0.34 µM	70 to 72 °C	
CN(C)c1cccc2c(S(=O)(=O)NCCCNc3ccnc4cc(C(F)(F)F)ccc34)cccc12 [Compound 28, 5-Dimethylamino-naphthalene-1-sulfonic acid [3-(7-trifluoromethyl-quinolin-4-ylamino)-propyl]-amide]	9.71 ± 0.33 µM	3.73 ± 0.21 µM	14.2 ± 0.98 µM	7.73 ± 0.61 µM	199 to 201 °C	
O=S(=O)(NCCCNc1ccnc2cc(C(F)(F)F)ccc12)c1ccc(-c2ccccc2)cc1 [Compound 29, Biphenyl-4-sulfonic acid [3-(7-trifluoromethyl-quinolin-4-ylamino)-propyl]-amide]	4.19 ± 0.23 µM	2.82 ± 0.05 µM	6.03 ± 0.38 µM	3.6 ± 0.27 µM	110 to 112 °C	
O=[N+]([O-])c1cccc(S(=O)(=O)NCCCNc2ccnc3cc(C(F)(F)F)ccc23)c1 [Compound 26, 3-Nitro-N-[3-(7-trifluoromethyl-quinolin-4-ylamino)-propyl]-benzenesulfonamide]	9.09 ± 0.57 µM	8.01 ± 0.76 µM	15.8 ± 0.95 µM	8.25 ± 0.52 µM	98 to 100 °C	
O=S(=O)(c1ccc(Cl)cc1)N1CCN(c2ccnc3cc(Cl)ccc23)CC1 [VR-24 (39), 7-Chloro-4-(4-(4-chlorophenylsulfonyl)piperazin-1-yl)quinoline]	8.34 ± 0.73 µM	6.36 ± 0.34 µM	11.8 ± 0.91 µM	4.31 ± 0.32 µM		GI50 (MCF10A; Homo sapiens, MCF-10A): 9.7 ± 0.81 µM
O=S(=O)(NCCCNc1ccnc2cc(Cl)ccc12)c1ccc(Cl)cc1Cl [Compound 21, 2,4-Dichloro-N-[3-(7-chloro-quinolin-4-ylamino)-propyl]-benzenesulfonamide]	3.61 ± 0.12 µM	3.55 ± 0.21 µM	6.76 ± 0.55 µM	4.04 ± 0.22 µM	145 to 147 °C	
O=[N+]([O-])c1ccc(S(=O)(=O)NCCCNc2ccnc3cc(C(F)(F)F)ccc23)c([N+](=O)[O-])c1 [Compound 25, 2,4-Dinitro-N-[3-(7-trifluoromethyl-quinolin-4-ylamino)-propyl]-benzenesulfonamide]	8.46 ± 0.41 µM		8.91 ± 0.77 µM	5.56 ± 0.34 µM	198 to 200 °C	GI50 (184B5; Homo sapiens, 184B5, 48 h): 15.9 ± 0.89 µM
O=[N+]([O-])c1cccc(S(=O)(=O)N2CCN(c3ccnc4cc(C(F)(F)F)ccc34)CC2)c1 [Compound 6, 4-[4-(3-Nitro-benzenesulfonyl)-piperazin-1-yl]-7-trifluoromethyl-quinoline]	18.6 ± 0.57 µM	17.7 ± 0.21 µM	32.2 ± 0.68 µM	9.44 ± 0.25 µM	199 to 201 °C	
COC(=O)c1sccc1S(=O)(=O)N1CCN(c2ccnc3cc(C(F)(F)F)ccc23)CC1 [Compound 14, 3-[4-(7-Trifluoromethyl-quinolin-4-yl)-piperazine-1-sulfonyl]-thiophene-2-carboxylic acid methyl ester]	23.9 ± 0.64 µM	15.88 ± 0.14 µM	34.7 ± 0.71 µM	16 ± 0.24 µM	117 to 119 °C	
O=S(=O)(NCCCNc1ccnc2cc(C(F)(F)F)ccc12)c1ccc(Cl)cc1Cl [Compound 30, 2,4-Dichloro-N-[3-(7-trifluoromethyl-quinolin-4-ylamino)-propyl]-benzenesulfonamide]	3.94 ± 0.12 µM	3.22 ± 0.08 µM	6.97 ± 0.54 µM	5.18 ± 0.29 µM	117 to 119 °C	
Cn1nnc2c(C(N)=O)ncn2c1=O [Temozolomide]						# Colonies (Experiment #1) (U87MG brain cancer cells; 1 μM): 64; # Colonies (Experiment #2) (U87MG brain cancer cells; 1 μM): 94; # Colonies (Experiment #1) (U87MG brain cancer cells; 5 μM): 39; # Colonies (Experiment #2) (U87MG brain cancer cells; 5 μM): 50; # Colonies (Experiment #1) (U87MG brain cancer cells; 10 μM): 4; # Colonies (Experiment #2) (U87MG brain cancer cells; 10 μM): 5; # Colonies (Experiment #1) (U87MG brain cancer cells; 20 μM): 2; # Colonies (Experiment #2) (U87MG brain cancer cells; 20 μM): 1; # Colonies (Experiment #1) (U87MG brain cancer cells; 50 μM): 2; # Colonies (Experiment #2) (U87MG brain cancer cells; 50 μM): 1
Cc1ccc(S(=O)(=O)NCCCNc2ccnc3cc(C(F)(F)F)ccc23)cc1 [Compound 24, 4-Methyl-N-[3-(7-trifluoromethyl-quinolin-4-ylamino)-propyl]-benzenesulfonamide]	6.21 ± 0.42 µM	12.2 ± 0.86 µM	6.36 ± 0.48 µM	6.9 ± 0.45 µM	77 to 79 °C	
